{"source": "paper PMC6837725", "assay": "Intramolecular Suzuki-Miyaura C(sp3)-C(sp2) coupling (cis-4-chlorocyclobut-2-ene carboxylate + E-vinyl-BPin) followed by spontaneous 4pi-electrocyclic ring opening to the (E,E,E)-trienoate macrolactone; Pd(PPh3)4 10 mol%, Cs2CO3 5 equiv", "settings": "19-membered ring, THF/H2O 3:1, 2.0 mM, 25.0 °C"}
{"smiles": "C/C(=C\\C=C\\C(F)(F)F)[C@H]1CC(=O)NC[C@H](O[Si](C)(C)C(C)(C)C)[C@H](C)C(=O)NCC/C=C/C=C/C=C/C(=O)O1", "values": [{"measurement": "ring closure, isolated yield", "setting": "from C/C(=C\\C=C\\C(F)(F)F)[C@@H](CC(=O)NC[C@H](O[Si](C)(C)C(C)(C)C)[C@H](C)C(=O)NCC/C=C/B1OC(C)(C)C(C)(C)O1)OC(=O)C1C=CC1Cl", "value": 73, "unit": "%"}]}
{"smiles": "C[C@@H]1C(=O)NCC/C=C/C=C/C=C/C(=O)O[C@@H](C)CC(=O)NC[C@@H]1O[Si](C)(C)C(C)(C)C", "values": [{"measurement": "ring closure, isolated yield", "setting": "from C[C@H](C(=O)NCC/C=C/B1OC(C)(C)C(C)(C)O1)[C@H](CNC(=O)C[C@H](C)OC(=O)C1C=CC1Cl)O[Si](C)(C)C(C)(C)C", "value": 84, "unit": "%"}]}
{"smiles": "CCCCCCC/C=C/C=C(\\C)[C@H]1CC(=O)NC[C@H](O[Si](C)(C)C(C)(C)C)[C@H](C)C(=O)NCC/C=C/C=C/C=C/C(=O)O1", "note": "[cis-31a -> 32a (FR252921)]", "values": [{"measurement": "ring closure, isolated yield", "setting": "from CCCCCCC/C=C/C=C(\\C)[C@@H](CC(=O)NC[C@H](O[Si](C)(C)C(C)(C)C)[C@H](C)C(=O)NCC/C=C/B1OC(C)(C)C(C)(C)O1)OC(=O)C1C=CC1Cl", "value": 74, "unit": "%"}]}
{"smiles": "CCCCCCCCC/C=C/C=C(\\C)[C@H]1CC(=O)NC[C@H](O[Si](C)(C)C(C)(C)C)[C@H](C)C(=O)NCC/C=C/C=C/C=C/C(=O)O1", "note": "[cis-31b -> 32b (FR252922)]", "values": [{"measurement": "ring closure, isolated yield", "setting": "from CCCCCCCCC/C=C/C=C(\\C)[C@@H](CC(=O)NC[C@H](O[Si](C)(C)C(C)(C)C)[C@H](C)C(=O)NCC/C=C/B1OC(C)(C)C(C)(C)O1)OC(=O)C1C=CC1Cl", "value": 82, "unit": "%"}]}
{"smiles": "CCCCCCC/C=C/C=C/C=C(\\C)[C@H]1CC(=O)NC[C@H](O[Si](C)(C)C(C)(C)C)[C@H](C)C(=O)NCC/C=C/C=C/C=C/C(=O)O1", "note": "[cis-31c -> 32c (FR256523)]", "values": [{"measurement": "ring closure, isolated yield", "setting": "from CCCCCCC/C=C/C=C/C=C(\\C)[C@@H](CC(=O)NC[C@H](O[Si](C)(C)C(C)(C)C)[C@H](C)C(=O)NCC/C=C/B1OC(C)(C)C(C)(C)O1)OC(=O)C1C=CC1Cl", "value": 71, "unit": "%"}]}
{"smiles": "CCCCCCCCCCC[C@H]1CC(=O)NC[C@H](O[Si](C)(C)C(C)(C)C)[C@H](C)C(=O)NCC/C=C/C=C/C=C/C(=O)O1", "note": "[cis-31d -> 32d (FR1, C11H23 side chain)]", "values": [{"measurement": "ring closure, isolated yield", "setting": "from CCCCCCCCCCC[C@@H](CC(=O)NC[C@H](O[Si](C)(C)C(C)(C)C)[C@H](C)C(=O)NCC/C=C/B1OC(C)(C)C(C)(C)O1)OC(=O)C1C=CC1Cl", "value": 56, "unit": "%"}]}
{"smiles": "CCCCCCC/C=C/C=C(\\C)[C@H]1CC(=O)NC[C@H](O[Si](C)(C)C(C)(C)C)CC(=O)NCC/C=C/C=C/C=C/C(=O)O1", "note": "[cis-31f -> 32f (FR3, C12-desmethyl)]", "values": [{"measurement": "ring closure, isolated yield", "setting": "from CCCCCCC/C=C/C=C(\\C)[C@@H](CC(=O)NC[C@@H](CC(=O)NCC/C=C/B1OC(C)(C)C(C)(C)O1)O[Si](C)(C)C(C)(C)C)OC(=O)C1C=CC1Cl", "value": 73, "unit": "%"}]}
{"smiles": "CCCCCCC/C=C/C=C(\\C)[C@H]1CC(=O)NCCCC(=O)NCC/C=C/C=C/C=C/C(=O)O1", "note": "[cis-31g -> FR4 (no C12-Me, no C13-O)]", "values": [{"measurement": "ring closure, isolated yield", "setting": "from CCCCCCC/C=C/C=C(\\C)[C@@H](CC(=O)NCCCC(=O)NCC/C=C/B1OC(C)(C)C(C)(C)O1)OC(=O)C1C=CC1Cl", "value": 55, "unit": "%"}]}
{"smiles": "C/C(=C\\C=C\\c1ccccc1)[C@H]1CC(=O)NC[C@H](O[Si](C)(C)C(C)(C)C)[C@H](C)C(=O)NCC/C=C/C=C/C=C/C(=O)O1", "note": "[cis-31i -> 32i (FR6, Ph-dienyl)]", "values": [{"measurement": "ring closure, isolated yield", "setting": "from C/C(=C\\C=C\\c1ccccc1)[C@@H](CC(=O)NC[C@H](O[Si](C)(C)C(C)(C)C)[C@H](C)C(=O)NCC/C=C/B1OC(C)(C)C(C)(C)O1)OC(=O)C1C=CC1Cl", "value": 80, "unit": "%"}]}
{"smiles": "C/C(=C\\C=C\\c1ccc(C)cc1)[C@H]1CC(=O)NC[C@H](O[Si](C)(C)C(C)(C)C)[C@H](C)C(=O)NCC/C=C/C=C/C=C/C(=O)O1", "note": "[cis-31j -> 32j (FR7, p-tolyl-dienyl)]", "values": [{"measurement": "ring closure, isolated yield", "setting": "from C/C(=C\\C=C\\c1ccc(C)cc1)[C@@H](CC(=O)NC[C@H](O[Si](C)(C)C(C)(C)C)[C@H](C)C(=O)NCC/C=C/B1OC(C)(C)C(C)(C)O1)OC(=O)C1C=CC1Cl", "value": 20, "unit": "%"}]}
{"smiles": "C/C(=C\\C=C\\c1ccc(C(F)(F)F)cc1)[C@H]1CC(=O)NC[C@H](O[Si](C)(C)C(C)(C)C)[C@H](C)C(=O)NCC/C=C/C=C/C=C/C(=O)O1", "note": "[cis-31k -> 32k (FR8, p-CF3-phenyl-dienyl)]", "values": [{"measurement": "ring closure, isolated yield", "setting": "from C/C(=C\\C=C\\c1ccc(C(F)(F)F)cc1)[C@@H](CC(=O)NC[C@H](O[Si](C)(C)C(C)(C)C)[C@H](C)C(=O)NCC/C=C/B1OC(C)(C)C(C)(C)O1)OC(=O)C1C=CC1Cl", "value": 47, "unit": "%"}]}
{"smiles": "C[C@@H]1C(=O)NCC/C=C/C=C/C=C/C(=O)O[C@@H](c2ccc(Br)cc2)CC(=O)NC[C@@H]1O[Si](C)(C)C(C)(C)C", "note": "[cis-31l -> 32l (FR9, 4-bromophenyl)]", "values": [{"measurement": "ring closure, isolated yield", "setting": "from C[C@H](C(=O)NCC/C=C/B1OC(C)(C)C(C)(C)O1)[C@H](CNC(=O)C[C@@H](OC(=O)C1C=CC1Cl)c1ccc(Br)cc1)O[Si](C)(C)C(C)(C)C", "value": 58, "unit": "%"}]}
{"smiles": "C/C(=C\\Br)[C@H]1CC(=O)NC[C@H](O[Si](C)(C)C(C)(C)C)[C@H](C)C(=O)NCC/C=C/C=C/C=C/C(=O)O1", "note": "[cis-31m -> 32m (FR10, bromovinyl)]", "values": [{"measurement": "ring closure, isolated yield", "setting": "from C/C(=C\\Br)[C@@H](CC(=O)NC[C@H](O[Si](C)(C)C(C)(C)C)[C@H](C)C(=O)NCC/C=C/B1OC(C)(C)C(C)(C)O1)OC(=O)C1C=CC1Cl", "value": 54, "unit": "%"}]}
{"smiles": "C[C@@H]1C(=O)NCC/C=C/C=C/C=C/C(=O)O[C@@H](c2ccc3ccccc3c2)CC(=O)NC[C@@H]1O[Si](C)(C)C(C)(C)C", "note": "[cis-31n -> 32n (FR11, 2-naphthyl)]", "values": [{"measurement": "ring closure, isolated yield", "setting": "from C[C@H](C(=O)NCC/C=C/B1OC(C)(C)C(C)(C)O1)[C@H](CNC(=O)C[C@@H](OC(=O)C1C=CC1Cl)c1ccc2ccccc2c1)O[Si](C)(C)C(C)(C)C", "value": 51, "unit": "%"}]}
